Reference: patent US20020055488A1, “Prevention and treatment of streptococcal and staphylococcal infection” (priority 2000, published 2002)

Assays:
[1] = tested on: Group A streptococcus (GAS); assay: GAS attachment to murine keratinocyte cell line PAM2.12 with exogenous hyaluronic acid; assay type: cell-based, Streptococcus pyogenes; conditions: for inhibition of GAS attachment to PAM2.12 keratinocytes: polysaccharide added together with GAS, 45 minutes incubation
Method: For bacterial adherence assays, keratinocytes were seeded at 10^5 cells per well in collagen-coated tissue culture wells (Nalge Nunc International, Naperville, Ill.), incubated for 3 days at 34° C. in 8% CO2, washed, and overlaid with medium containing 10^6 CFU of GAS per well. After incubation for 1 hour at 34° C. in 8% CO2 the keratinocyte monolayers were washed twice to remove nonadherent bacteria, then the number of cell-associated bacteria was determined by quantitative culture after releasing the keratinocytes with trypsin and lysing them in sterile water, experiments testing the effects of exogenous hyaluronic acid on GAS adherence were performed using the mouse keratinocyte cell line, PAM 2.12 (Song, I. S. 2000, Exp. Dermatol. 9:42-52). Cells were seeded in collagen-coated tissue culture wells at 10^5 cells per well, cultured for 3 days at 37° C. in 5% CO2, then inoculated with 10^6 CFU of GAS per well in medium containing exogenous hyaluronic acid (from rooster comb, Sigma Chemicals, St. Louis, Mo.), no inhibitor, or a control polysaccharide, alginic acid, a high-molecular-weight polymer of mannuronic acid and guluronic acid (Protonal Durvillea Alginate, Pronova. Biopolymer, Inc., Portsmouth, N.H.). Cells were incubated for 45 minutes at 37° C. in 5% CO2, then processed for enumeration of adherent bacteria as described above. In experiments to test whether exogenous hyaluronic acid could promote dissociation of GAS attached to keratinocytes, GAS were allowed to attach to keratinocytes in the absence of inhibitor; […], no inhibitor, or alginic acid. After 45 minutes of incubation, the number of adherent bacteria was enumerated as described above.
To investigate the specificity of the interaction between the GAS capsule and CD44 on epithelial cells, the ability of exogenous hyaluronic acid to compete with GAS for binding to murine keratinocytes was examined. Addition of exogenous hyaluronic acid inhibited GAS attachment to the murine keratinocyte cell line PAM2.12 by >95% (P<0.03, FIG. 5). Alginic acid, another high molecular weight acidic polysaccharide, had no effect, supporting the hypothesis that adherence depends on a specific interaction between the GAS hyaluronic acid capsule and CD44.

[2] = tested on: Group A Streptococcus (GAS, strain 950771); assay: Bacterial binding to human keratinocyte monolayers after pre-incubation, GAS; assay type: cell-based, Streptococcus pyogenes; conditions: 10 bacteria per keratinocyte, 1 hour, alginate control
Method: (§1) Keratinocyte monolayers were pre-incubated with alginate (AL, solid bars) or hyaluronic cid (HA, hatched bars) prior to surface inoculation with either Group A Streptococcus (GAS, strain 950771), Group B Streptococcus (GBS, strain 515), Streptococcus pneumoniae (S. pneumo, type 6), or Staphylococcus aureus (S. aureus, type 8) at a multiplicity of infection of 10 bacteria per keratinocyte for 1 hour.

[3] = tested on: Group B Streptococcus (GBS, strain 515); assay: Bacterial binding to human keratinocyte monolayers after pre-incubation, GBS; assay type: cell-based; conditions: 10 bacteria per keratinocyte, 1 hour, alginate control
Method: as §1

[4] = tested on: Staphylococcus aureus (S. aureus, type 8); assay: Bacterial binding to human keratinocyte monolayers after pre-incubation, S. aureus; assay type: cell-based; conditions: 10 bacteria per keratinocyte, 1 hour, alginate control
Method: as §1

[5] = tested on: Group A streptococcus (GAS); assay: GAS pharyngeal colonization in mice after intranasal pretreatment with hyaluronic acid; assay type: in vivo, Streptococcus pyogenes; conditions: intranasal 20 μl of 1 mg/ml, 5 hours prior to GAS inoculation, compared to PBS or alginic acid pretreated, 3 days
Method: For pharyngeal colonization experiments, 4 to 6 week-old female mice were anesthetized by inhalation of methoxyflurane, then inoculated intranasally with approximately 5×10^6 CFU of GAS in 20 μl phosphate-buffered saline, pH 7.4. Throat swabs were collected from anesthetized mice daily and were plated on Todd-Hewitt-blood agar containing streptomycin 500 μg/ml to inhibit growth of normal flora. For some experiments, the bacterial inoculum was suspended in phosphate-buffered saline containing 50μg of mAb, either KM81, a rat anti-mouse CD44 mAb (Miyake, K. 1990, J. Exp. Med. 171:477-488), or 4H1, an isotype-matched control monoclonal antibody directed to Pseudomonas aeruginosa lipopolysaccharide (donated by Michael Preston, Brigham and Women's Hospital, Boston, Mass.). Both antibodies were purified by protein G affinity chromatography (GammaBind Plus Sepharose, Amersham Pharmacia Biotech, Piscataway, N.J.) prior to use.
Differences in attachment of GAS to keratinocytes were evaluated Using the Mann Whitney U test (Instat version 1.12, GraphPad Software, Inc. San Diego, Calif.). Repeated measures logistic regression was used to test for the effect of anti-CD44 mAb or erogenous hyaluronic acid treatment on the proportion of mice with positive throat cultures over three days of observation (Zeger, S. L. et al. 1986, Biometrics. 42:121-130). […]

[6] = tested on: Streptococcus pneumoniae (S. pneumo, type 6); assay: Bacterial binding to human keratinocyte monolayers after pre-incubation, S. pneumoniae; assay type: cell-based; conditions: 10 bacteria per keratinocyte, 1 hour, alginate control
Method: as §1

| Substance | inhibition of GAS attachment to PAM2.12 keratinocytes [1] | inhibition of binding of GAS to human keratinocytes [2] | inhibition of binding of GBS to human keratinocytes [3] | inhibition of binding of S. aureus to human keratinocytes [4] | reduction of GAS pharyngeal colonization (positive throat cultures) [5] [%] | inhibition of binding of S. pneumoniae to human keratinocytes [6] | reduction of GAS attachment to keratinocytes ([1]; addition of hyaluronic acid delayed for 2 hours) | reduction in bacterial attachment to keratinocytes ([1]; hyaluronic acid added up to 45 minutes after adding GAS) [%] |
| --- | --- | --- | --- | --- | --- | --- | --- | --- |
| alginic acid | had no effect | – | – | – | – | – | – | – |
| hyaluronic acid | > 95% | more than 80% | more than 80% | more than 80% | 60 to 80 | more than 80% | 70-80% | > 90 |
